Source: patent US20230086703A1, “N-(4-(5-chloropyridin-3-yl)phenyl)-2-(2-(cyclopropanesulfonamido)pyrimidin-4-yl) butanamide derivatives and related compounds as human CTPS1 inhibitors for the treatment of proliferative diseases” (Step Pharma S.A.S., priority 2019, published 2023)

Target: T1, human CTPS1 (Homo sapiens, UniProt P17812)
T1 construct: FLAG (with GG linker); His8 (with GG linker); purchased Proteros biostructures GmbH
T1 sequence (P17812 1-591): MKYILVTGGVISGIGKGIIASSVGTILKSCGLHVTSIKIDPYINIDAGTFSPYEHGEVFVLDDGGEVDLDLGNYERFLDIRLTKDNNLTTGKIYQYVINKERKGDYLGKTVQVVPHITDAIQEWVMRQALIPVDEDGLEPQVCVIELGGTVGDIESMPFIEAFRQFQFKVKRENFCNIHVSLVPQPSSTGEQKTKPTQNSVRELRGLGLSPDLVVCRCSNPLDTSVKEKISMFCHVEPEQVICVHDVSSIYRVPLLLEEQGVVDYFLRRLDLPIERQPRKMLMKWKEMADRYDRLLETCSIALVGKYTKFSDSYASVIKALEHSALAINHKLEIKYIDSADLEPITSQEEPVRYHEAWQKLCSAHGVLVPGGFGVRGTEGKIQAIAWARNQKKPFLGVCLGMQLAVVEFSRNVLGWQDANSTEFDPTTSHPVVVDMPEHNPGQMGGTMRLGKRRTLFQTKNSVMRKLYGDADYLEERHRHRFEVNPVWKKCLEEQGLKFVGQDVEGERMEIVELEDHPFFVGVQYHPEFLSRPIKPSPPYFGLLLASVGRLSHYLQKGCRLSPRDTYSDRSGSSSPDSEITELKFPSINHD
Test: RapidFire/MS-based enzyme selectivity assay (human CTPS1 versus CTPS2), CTPS1 isoform
Type: biochemical
Conditions: RapidFire/MS IC50 values of CTPS1 and CTPS2; Table 15
Method in brief: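 Full-length C-terminal FLAG-His-tagged CTPS1 (1-591) was preincubated 10 min at 25 °C with compound in HEPES pH 8.0 buffer with MgCl2, KCl, DTT and Tween-20. Reactions were started with a 2× mix of ATP 0.3 mM, UTP 0.2 mM, GTP 0.07 mM and L-glutamine 0.1 mM, and run in the linear phase at 25 °C. IC50 comes from the RapidFire-MS ratio of CTP to 13C9-15N3-CTP.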

Selectivity (fold selectivity between CTPS1 and CTPS2) | Structure (SMILES)
+++ (>60 fold (+++)) | CCOc1cncc(-c2ccc(NC(=O)C(CCOC)c3ccnc(NS(=O)(=O)C4CC4)n3)nc2)n1 (stereo not shown) [P145, 2-(2-(cyclopropanesulfonamido)pyrimidin-4-yl)-N-(5-(6-ethoxypyrazin-2-yl)pyridin-2-yl)-4-methoxybutanamide]
+++ (>60 fold (+++)) | CCOc1cncc(-c2ccc(NC(=O)C(CCOC)c3ccnc(NS(=O)(=O)C4CC4)n3)c(F)c2)n1 (stereo not shown) [P146, 2-(2-(cyclopropanesulfonamido)pyrimidin-4-yl)-N-(4-(6-ethoxypyrazin-2-yl)-2-fluorophenyl)-4-methoxybutanamide]
+ (2-30 fold (+)) | CCOc1cncc(-c2cnc(NC(=O)C(CC)c3ccnc(NS(=O)(=O)C4CC4)n3)c(C)c2)n1 (stereo not shown) [P155, 2-(2-(cyclopropanesulfonamido)pyrimidin-4-yl)-N-(5-(6-ethoxypyrazin-2-yl)-3-methylpyridin-2-yl)butanamide]
+++ (>60 fold (+++)) | CCC(C(=O)Nc1ccc(-c2cncc(OC)n2)cn1)c1ccnc(NS(=O)(=O)C2CC2)n1 (stereo not shown) [P159, 2-(2-(cyclopropanesulfonamido)pyrimidin-4-yl)-N-(5-(6-methoxypyrazin-2-yl)pyridin-2-yl)butanamide]
+ (2-30 fold (+)) | CCOc1cncc(-c2ccc(NC(=O)C(CC)c3ccnc(NS(=O)(=O)C4CC4)n3)c(C)c2)n1 (stereo not shown) [P161, 2-(2-(cyclopropanesulfonamido)pyrimidin-4-yl)-N-(4-(9-ethoxypyrazin-2-yl)-2-methylphenyl)butanamide]
++ (>30-60 fold (++)) | CCOc1cncc(-c2cnc(NC(=O)C(CC)c3ccnc(NS(=O)(=O)C4CC4)n3)c(F)c2)n1 (stereo not shown) [P162, 2-(2-(cyclopropanesulfonamido)pyrimidin-4-yl)-N-(5-(6-ethoxypyrazin-2-yl)-3-fluoropyridin-2-yl)butanamide]
+++ (>60 fold (+++)) | CCOc1cncc(-c2ccc(NC(=O)C(C)(CC)c3ccnc(NS(=O)(=O)C4CC4)n3)nc2)n1 (stereo not shown) [P163, 2-(2-(cyclopropanesulfonamido)pyrimidin-4-yl)-N-(5-(6-ethoxypyrazin-2-yl)pyridin-2-yl)-2-methylbutanamide]
+ (2-30 fold (+)) | CCOc1cncc(-c2ccc(NC(=O)C(OC)c3ccnc(NS(=O)(=O)C4CC4)n3)cc2)n1 (stereo not shown) [P164, 2-(2-(cyclopropanesulfonamido)pyrimidin-4-yl)-N-(4-(6-ethoxypyrazin-2-yl)phenyl)-2-methoxyacetamide]
++ (>30-60 fold (++)) | CCOc1cncc(-c2ccc(NC(=O)C(CC)c3cccc(NS(=O)(=O)C4CC4)n3)cc2)n1 (stereo not shown) [P191, 2-(6-(cyclopropanesulfonamido)pyridin-2-yl)-N-(4-(6-ethoxypyrazin-2-yl)phenyl)butanamide]
+++ (>60 fold (+++)) | CCOc1cncc(-c2ccc(NC(=O)C(C)(C)c3cncc(NS(=O)(=O)C4CC4)n3)cc2)n1 [P196, 2-(6-(cyclopropanesulfonamido)pyrazin-2-yl)-N-(4-(6-ethoxypyrazin-2-yl)phenyl)-2-methylpropanamide]
+++ (>60 fold (+++)) | CCOc1cncc(-c2ccc(NC(=O)C(CC)c3cncc(NS(=O)(=O)C4CC4)n3)cc2)n1 (stereo not shown) [P202, 2-(6-(cyclopropanesulfonamido)pyrazin-2-yl)-N-(4-(6-ethoxypyrazin-2-yl)phenyl)butanamide]
+++ (>60 fold (+++)) | CCOc1cncc(-c2ccc(C(=O)NC(CC)c3ccnc(NS(=O)(=O)C4CC4)n3)c(F)c2)n1 (stereo not shown) [P216, N-(1-(2-(cyclopropanesulfonamido)pyrimidin-4-yl)propyl)-4-(6-ethoxypyrazin-2-yl)-2-fluorobenzamide]

Continued, molecule first:

Structure (SMILES) | Selectivity (fold selectivity between CTPS1 and CTPS2)
CCOc1cncc(-c2ccc(NC(=O)C(F)(CC)c3ccnc(NS(C)(=O)=O)n3)nc2)n1 (stereo not shown) [P151, N-(5-(6-ethoxypyrazin-2-yl)pyridin-2-yl)-2-fluoro-2-(2-(methylsulfonamido)pyrimidin-4-yl)butanamide] | +++ (>60 fold (+++))
CCC(C(=O)Nc1ncc(-c2cncc(OC)n2)cc1F)c1ccnc(NS(=O)(=O)C2CC2)n1 (stereo not shown) [P158, 2-(2-(cyclopropanesulfonamido)pyrimidin-4-yl)-N-(3-fluoro-5-(6-methoxypyrazin-2-yl)pyridin-2-yl)butanamide] | + (2-30 fold (+))
CCOc1cncc(-c2ccc(NC(=O)C(CC)c3cccc(NS(=O)(=O)C4CC4)n3)nc2)n1 (stereo not shown) [P188, 2-(6-(cyclopropanesulfonamido)pyridin-2-yl)-N-(5-(6-ethoxypyrazin-2-yl)pyridin-2-yl)butanamide] | ++ (>30-60 fold (++))
CCOc1cncc(-c2ccc(NC(=O)C(C)(C)c3cncc(NS(=O)(=O)C4CC4)n3)nc2)n1 [P195, 2-(6-(cyclopropanesulfonamido)pyrazin-2-yl)-N-(5-(6-ethoxypyrazin-2-yl)pyridin-2-yl)-2-methylpropanamide] | +++ (>60 fold (+++))
CCOc1cncc(-c2ccc(NC(=O)C3(c4cncc(NS(=O)(=O)C5CC5)n4)CCOCC3)nc2)n1 [P197, 4-(6-(cyclopropanesulfonamido)pyrazin-2-yl)-N-(5-(6-ethoxypyrazin-2-yl)pyridin-2-yl)tetrahydro-2H-pyran-4-carboxmaide] | +++ (>60 fold (+++))
CCOc1cncc(-c2ccc(NC(=O)C(C)(CCOC)c3cncc(NS(=O)(=O)C4CC4)n3)nc2)n1 (stereo not shown) [P198, 2-(6-(cyclopropanesulfonamido)pyrazin-2-yl)-N-(5-(6-ethoxypyrazin-2-yl)pyridin-2-yl)-4-methoxy-2-methylbutanamide] | +++ (>60 fold (+++))
CCOc1cncc(-c2ccc(NC(=O)C(F)(CC)c3cncc(NS(=O)(=O)C4CC4)n3)nc2)n1 (stereo not shown) [P200, 2-(6-(cyclopropanesulfonamido)pyrazin-2-yl)-N-(5-(6-ethoxypyrazin-2-yl)pyridin-2-yl)-2-fluorobutanamide] | ++ (>30-60 fold (++))
CCOc1cncc(-c2ccc(NC(=O)C(CC)c3cncc(NS(=O)(=O)C4CC4)n3)nc2)n1 (stereo not shown) [P201, 2-(6-(cyclopropanesulfonamido)pyrazin-2-yl)-N-(5-(6-ethoxypyrazin-2-yl)pyridin-2-yl)butanamide] | +++ (>60 fold (+++))
CC(C)Oc1cncc(-c2ccc(C(=O)NC(C)(C)c3cncc(NS(=O)(=O)C4CC4)n3)c(F)c2)n1 [P221, N-(2-(6-(cyclopropanesulfonamido)pyrazin-2-yl)propan-2-yl)-2-fluoro-4-(6-isopropoxypyrazin-2-yl)benzamide] | + (2-30 fold (+))
CC(C)(NC(=O)c1ccc(-c2cncc(C(F)(F)F)n2)cc1)c1cncc(NS(=O)(=O)C2CC2)n1 [P222, N-(2-(6-(cyclopropanesulfonamido)pyrazin-2-yl)propan-2-yl)-4-(6-(trifluoromethyl)pyrazin-2-yl)benzamide] | + (2-30 fold (+))
